The subject of series [1] is 1321N1 cells. The series can be described thus: MTS assay, 1321N1 glioma cell line. It is filed as cell-based. To be noted: 48 h; for activity against the 1321N1 cell line (in words): MTS assay. The method, then: (§1) 1321N1 cells were maintained in Dulbeccos's Modified Eagle's Medium (DMEM) supplemented with 10% (v/v) foetal bovine serum (FBS) and 2 mM L-glutamine, while the U87MG cell line was maintained in Essential Minimum Eagle Medium (EMEM) supplemented with 10% (v/v) FBS, 2 mM L-glutamine, 1 mM sodium pyruvate and 1% (v/v) non-essential amino acids (NEAA) (Lonza, UK) in a 37° C. humidified incubator supplied with 5% CO2. The 1321N1 and the U87MG cells were trypsinized and cultured overnight at a cell density of 3500 cells/200 μl and 4000 cells/200 μl respectively in 96-well microtitre plates (Sarstedt, UK). The following day when the cells looked 50-60% confluent, each concentration of the commercial drugs and novel compounds mentioned above were added in quadruplicates and left for incubation for 48 hours. After 48 hours, 20 μl of the pre-warmed MTS reagent (Promega, UK) was added to each of the wells and the 96-well plates were incubated at 37° C. humidified incubator supplied with 5% CO2 for 60 min. At the end of 60 min, the absorbance was recorded at 490 nm using a Tecan GENios Pro® microplate reader. The concentration of compound that inhibits 50% of cell growth (IC50) compared to untreated vehicle controls containing ≦0.5% absolute ethanol was calculated by nonlinear regression analysis. Absolute ethanol was used in the vehicle controls as indole 4 was dissolved in absolute ethanol.
(Tetrazolium assays rely on reduction of a dye to a coloured formazan, in cell work by metabolically active cells.)

In series [2] the test system is U87MG cells. In words: Reactive oxygen species detection assay (carboxy-H2DCFDA, flow cytometry), U87MG cells. It is filed as cell-based. To be noted: 500 μM, 1 h, positive control TBHP 100 μM. The text has this:
(§2) The inventors hypothesised that the active indoles were acting through a radical-based mechanism, which was most likely related to the generation of reactive oxygen species (ROS).^[6] As such, the inventors chose the Image-iT™ LIVE Green Reactive Oxygen Species Detection Kit from Invitrogen Ltd, UK, which is able to detect reactive oxygen species (ROS) in live cells, to assess selected indoles. Oxidatively stressed cells, when labeled with the carboxy-H2DCFDA dye provided, should generate fluorescence which is detectable using a confocal microscope and flow cytometry. Various assays were therefore performed in accordance with the following protocols.
(§3) 1321N1 cells were maintained in Dulbeccos's Modified Eagle's Medium (DMEM) supplemented with 10% (v/v) foetal bovine serum (FBS) and 2 mM L-glutamine, while the U87MG cell line was maintained in Essential Minimum Eagle Medium (EMEM) supplemented with 10% (v/v) FBS, 2 mM L-glutamine, 1 mM sodium pyruvate and 1% (v/v) non-essential amino acids (NEAA) (Lonza, UK) in a 37° C. humidified incubator supplied with 5% CO2. The 1321N1 and the U87MG cells were trypsinized and cultured overnight at a cell density of 10^4 cells/well/ml and were seeded in 6 well plates (BD Biosciences, UK) and were allowed to attach overnight. 2 ml of this cell suspension was added into each well resulting into a final concentration of 20,000 cells/well. On the day of experiment, cells were labelled with sufficient amount of 25 μM carboxy-H2DCFDA dye and were incubated for 30 min at 37° C., protected from light. Cells were then treated with 500 μM of indole 4 and positive control [tert-butyl hydroperoxide (TBHP)](100 μM) and negative control (indole 2) (500 μM) for 60 mins. Cells were gently washed with Hank[…]s balanced salt solution (HBSS) warm buffer three times and then trypsinized, centrifuged and resuspended in 300 μl PBS. Cells were filtered through cell strainer caps (35 μm mesh) to obtain a single cell suspension and analysed using a FACSAria flow cytometer (BD Biosciences). The untreated vehicle controls contained ≦0.5% absolute ethanol and DMSO as indole 4 was dissolved in absolute ethanol while TBHP and indole 2 were dissolved in DMSO.
(§4) In the event, to confirm and quantify the amount of fluorescence (due to ROS) produced, glioma cell lines 1321N1 and U87MG were seeded in separate 6 well plates and were left overnight to attach. On the day of the experiment the carboxy-H2DCFDA dye was added to the cells which were incubated for 30 min in the dark. Indoles 2, 3, 4 and 7 (500 μM) were then added, in separate experiments, and left for 1 h incubation. Cells were thoroughly washed at each step to prevent background staining and they were imaged immediately after incubation.
For orientation: A flow cytometer gives signals particle by particle.

Series [3] deals with U87MG cells. In words: MTS assay, U87MG glioma cell line. It is filed as cell-based. The method, then: as §1
Series [4] has as its system 1321N1 cells. The series can be described thus: Reactive oxygen species detection assay (carboxy-H2DCFDA, flow cytometry), 1321N1 cells. It is filed as cell-based. To be noted: for ROS induction / oxidative stress: shift of H2DCFDA fluorescence signal compared to control: 1321N1, 500 μM, 1 h, flow cytometry, positive control TBHP 100 μM.
From the text: as §2, §3, §4

Series [5] can be described thus: Stability under acidic conditions. It is filed as physicochemical.
Series [6] has as its system 1321N1 cells. The series can be described thus: MTS assay, 1321N1 glioma cell line. To be noted: 1321N1, co-treatment with ascorbic acid. In kind it is cell-based.
For series [7], the system named is U87MG cells. In words: Acridine orange assay of acidic vesicular organelle (AVO) formation, U87MG cells. To be noted: 500 μM, 1 h, flow cytometry. In kind it is cell-based. The method, then:
(§5) 1321N1 cells were maintained in Dulbeccos's Modified Eagle's Medium (DMEM) supplemented with 10% (v/v) foetal bovine serum (FBS) and 2 mM L-glutamine, while the U87MG cell line was maintained in Essential Minimum Eagle Medium (EMEM) supplemented with 10% (v/v) FBS, 2 mM L-glutamine, 1 mM sodium pyruvate and 1% (v/v) non-essential amino acids (NEAA) (Lonza, UK) in a 37° C. humidified incubator supplied with 5% CO2. The 1321N1 and the U87MG cells were trypsinized and cultured overnight at a cell density of 10^4 cells/well/ml and were seeded in 6 well plates (BD Biosciences, UK) and were allowed to attach overnight. 2 ml of this cell suspension was added into each well resulting into a final concentration of 20,000 cells/well. After 24 h of incubation, cells were treated with 500 μM of indole 4 for 60 min. After 60 min incubation with the compound the cells were stained with 3 μM acridine orange and incubated for 15 min at 37° C., protected from light. […] Cells were filtered through cell strainer caps (35 μm mesh) to obtain a single cell suspension and analysed using a FACSAria flow cytometer (BD Biosciences). […]
(§6) The glioma cells were seeded in 6 well plates and were left overnight to attach. The cells were then treated with indole 4 for 1 h, stained with acridine orange for 15 min, and were analysed by flow cytometry.

Series [8] concerns primary cell culture (IN859). The series can be described thus: IC50 against primary cell culture IN859 from a glioblastoma multiforme patient biopsy. It is filed as cell-based. To be noted: cells from a biopsy from a glioblastoma multiforme patient. An excerpt:
Based on these preliminary results the inventors were keen to discover if the effects would also be observed against a primary cell culture (IN859) from cells obtained from a biopsy from a glioblastoma multiforme patient.

Series [9] concerns 1321N1 cells. In words: Acridine orange assay of acidic vesicular organelle (AVO) formation, 1321N1 cells. In kind it is cell-based. To be noted: 1321N1, 500 μM, 1 h, flow cytometry. How it is done: as §5, §6
The mark [10] stands for this setting: average and standard deviation of four repeats, dash = IC50 value not reached.
Setting [11] is: 48 h, average and standard deviation of four repeats, dash = IC50 value not reached.
The mark [12] stands for this setting: Homo sapiens, U-87 MG, 48 h, average and standard deviation of four repeats, dash = IC50 value not reached.
Where [13] appears, read: Homo sapiens, 1321-N1, average and standard deviation of four repeats, dash = IC50 value not reached.

Entries after “also recorded” stand apart in the source; their conditions may differ.

In general, IC50 refers to the concentration at which inhibition is half-maximal. Read a low IC50 as greater potency. For orientation: inhibition means the share of the control response that was lost under treatment. Turning to `c1ccc(-c2cc3ccccc3[nH]2)cc1` [Compound 2, 2-phenyl-1H-indole], in series [1] (setting [10]), the “MTS assay IC50 values 1321N1” value was “does not reach its IC50”. Further, the “activity against the 1321N1 cell line (in words)” value in series [1] is listed as “not able to inhibit the growth”. Moreover, the “ROS induction / oxidative stress: shift of H2DCFDA fluorescence signal compared to control” value (shortened to “ROS induction / oxidative stress: shift”) in series [2] and in series [4] was “no shift was observed” each time. In addition, the “MTS assay IC50 values U87MG” value in series [3] (setting [11]) is “does not reach its IC50”. The same molecule yielded an IC50 in series [3] (setting [12]) greater than 400 µM. For the same molecule, in series [3] (Homo sapiens, U-87 MG, U87MG, at 400 μM, 48 h, read-out: maximum growth inhibition), the inhibition at 400 µM was found to be 7%.
As to `OCc1c(-c2ccccc2)[nH]c2ccccc12` [Compound 3, (2-phenyl-1H-indol-3-yl)methanol], the figures for the IC50 in [1] (setting [13]) and in [3] (setting [12]) were 111 ± 1 µM and 176 ± 1 µM, respectively. In series [1], the “activity against the 1321N1 cell line (in words)” value is on record as “active”. Besides, the “ROS induction / oxidative stress: shift” value in series [2] and in series [4] was “shift of the fluorescence signal; also recorded: to a greater level than the positive control” throughout. For the same molecule, the “stability under acidic conditions” value in series [5] is on record as “slightly unstable”.
In the case of `O=Cc1c(-c2ccccc2)[nH]c2ccccc12` [Compound 6, 2-phenyl-1H-indole-3-carbaldehyde], the “activity against the 1321N1 cell line (in words)” value in [1] was “inactive”. In addition, the “activity against the U87MG cell line (in words)” value in series [3] (MTS assay, 48 h) was “inactive”.
For the molecule `OCc1c[nH]c2ccccc12` [Compound 1, (1H-indol-3-yl)methanol], the IC50 is 374 ± 2 µM in [1] (setting [13]) and 585 ± 2 µM in series [3] (setting [12]). For the same molecule, the “activity against the 1321N1 cell line (in words)” value in series [1] is “active”.
For the molecule `COc1ccccc1-c1cc2ccccc2[nH]1` [Compound 7, 2-(2-methoxyphenyl)-1H-indole, reference compound], the “activity against the 1321N1 cell line (in words)” value in [1] was “inactive”. The “ROS induction / oxidative stress: shift” value in [2] and in series [4] was “no shift was observed” each time. Besides, in [3] (MTS assay, 48 h), the “activity against the U87MG cell line (in words)” value is “inactive”.
Regarding `Oc1ccccc1-c1cc2ccccc2[nH]1` [Compound 4, 2-(1H-indol-2-yl)phenol], the “cell viability in the presence of ascorbic acid” value in series [6] is given as “cell viability was unaffected”; in series [3] (MTS assay, U87MG, co-treatment with ascorbic acid) it was “cell viability was unaffected”. For the same molecule, the “AVO formation (acridine orange red fluorescence)” value in series [7] and in series [9] was “increased amount of red fluorescence” throughout. Besides, the IC50 in series [1] (setting [13]) was determined as 445 ± 4 µM; in series [8] it was 398 ± 3 µM; in series [3] (setting [12]), 379 ± 4 µM. For the same molecule, the “activity against the 1321N1 cell line (in words)” value in series [1] is given as “active”. The “ROS induction / oxidative stress: shift” value in [2] and in [4] was “shift of the fluorescence signal; also recorded: to a greater level than the positive control” in each case. The “level of fluorescence (ROS) on co-treatment with ascorbic acid” value in series [4] (1321N1, indole 4 500 μM plus ascorbic acid 100 μM, data not shown) was “less than the vehicle control cells alone”.
Regarding `N.N.[Cl][Pt][Cl]` [cisplatin], the IC50 stood at 11 ± 2 µM in series [1] (setting [10]) and 310 ± 4 µM in [3] (setting [11]). The “activity against the 1321N1 cell line (in words)” value in series [1] is recorded as “active”.

The record behind these values is patent publication US20150272928A1, “INDOLE DERIVATIVES” (UNIVERSITY OF CENTRAL LANCASHIRE, priority 2012, published 2015).
